Experimental data: patent publication US20030004211A1, “Carbohydrate modifying agent and drinks containing the modifying agent” (priority 2001, published 2003)

Legend:
mutans streptococci = test: in vitro growth and adherence of cariogenic bacteria (UCSF School of Preventive Dentistry study); assay type: cell-based; details: 0.5% zinc solution
Source text: (§1) In another preferred embodiment of the invention, the formulation includes one or more zinc salt or other source of the zinc ion. Metabolically, zinc is a critical nutrient in the synthesis of insulin and the metabolism of carbohydrates. From a dental perspective, cariogenic bacteria enzymatically produce an insoluble glucan deposit from simple sugars present in the mouth that firmly adheres to the enamel tooth surface.

sobrinus streptococci = test: as above; assay type: cell-based; details: 0.5% zinc solution
Source text: as §1

zinc ascorbate
inhibited: adherence of mutans streptococci (mutans streptococci) | growth of mutans streptococci (mutans streptococci) | adherence of sobrinus streptococci (sobrinus streptococci) | growth of sobrinus streptococci (sobrinus streptococci)

[Cl-].[Cl-].[Zn+2] [zinc chloride]
inhibited: adherence of mutans streptococci (mutans streptococci) | growth of mutans streptococci (mutans streptococci) | adherence of sobrinus streptococci (sobrinus streptococci) | growth of sobrinus streptococci (sobrinus streptococci)
